Assay results from ChEMBL document CHEMBL1152004, “Chloramphenicol: High dilution FT-IR evidence for an intramolecular hydrogen bond” (Bioorg Med Chem Lett, 1991).

Biological target: Ribosome
Experiment: Inhibition of protein biosynthesis at the level of the peptidyl transferase center of the 50 s ribosomal subunit
Format: subcellular

Kd: ~1 µM
SMILES: O=C(N[C@H](CO)[C@H](O)c1ccc([N+](=O)[O-])cc1)C(Cl)Cl [CHLORAMPHENICOL]
